Results: the supplement of paper PMC5908809

How the values were obtained:
SNK-6 (IL-2 2.5 ng/mL) [1] = assay: drug sensitivity score (DSS) (DSS units); higher = more sensitive; extreme values may be limits of the assay; settings: 72 h
NK-92 (IL-2 2.5 ng/mL) [2] = assay: as above; settings: 72 h
[3] = test system: normal primary NK cells, pool 3 (3 donors) (IL-2 2.5 ng/mL); assay: as above; settings: 72 h
[4] = test system: normal primary NK cells, pool 1 (3 donors) (IL-2 2.5 ng/mL); assay: as above; settings: 72 h
NK-YS (IL-2 2.5 ng/mL) [5] = assay: as above; settings: 72 h
IMC-1 (IL-2 20 ng/mL) [6] = assay: as above; settings: 72 h
YT (IL-2 2.5 ng/mL) [7] = assay: as above; settings: 72 h
NKL (IL-2 2.5 ng/mL) [8] = assay: as above; settings: 72 h
DERL-7 (IL-2 2.5 ng/mL) [9] = assay: as above; settings: 72 h
[10] = test system: normal primary NK cells, pool 1 (3 donors), resting (IL-2 0 ng/mL); assay: as above; settings: 72 h
KAI3 (IL-2 2.5 ng/mL) [11] = assay: as above; settings: 72 h
[12] = test system: normal primary NK cells, pool 2 (3 donors) (IL-2 2.5 ng/mL); assay: as above; settings: 72 h
KHYG-1 (IL-2 2.5 ng/mL) [13] = assay: as above; settings: 72 h
[14] = test system: normal NK cells expanded with K562-aAPC; assay: as above; settings: 72 h; IL-2 2.5 ng/mL
Experimental: (§1)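 Drug sensitivity and resistance testing on K562-aAPC-expanded normal NK cells: 5 concentrations (10-fold steps over a 10,000-fold range), 72 h at 37 °C, viability by CellTiter-Glo normalised to DMSO and benzethonium chloride controls; DSS from the fitted curve.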

SNK-6 (IL-2 2.5 ng/mL) [15] = assay: percent inhibition of viability; higher = more inhibition; settings: 72 h
NK-92 (IL-2 2.5 ng/mL) [16] = assay: as above; settings: 72 h
[17] = test system: normal primary NK cells, pool 3 (3 donors) (IL-2 2.5 ng/mL); assay: as above; settings: 72 h
[18] = test system: normal primary NK cells, pool 1 (3 donors) (IL-2 2.5 ng/mL); assay: as above; settings: 72 h
NK-YS (IL-2 2.5 ng/mL) [19] = assay: as above; settings: 72 h
IMC-1 (IL-2 20 ng/mL) [20] = assay: as above; settings: 72 h
YT (IL-2 2.5 ng/mL) [21] = assay: as above; settings: 72 h
NKL (IL-2 2.5 ng/mL) [22] = assay: as above; settings: 72 h
DERL-7 (IL-2 2.5 ng/mL) [23] = assay: as above; settings: 72 h
[24] = test system: normal primary NK cells, pool 1 (3 donors), resting (IL-2 0 ng/mL); assay: as above; settings: 72 h
KAI3 (IL-2 2.5 ng/mL) [25] = assay: as above; settings: 72 h
[26] = test system: normal primary NK cells, pool 2 (3 donors) (IL-2 2.5 ng/mL); assay: as above; settings: 72 h
KHYG-1 (IL-2 2.5 ng/mL) [27] = assay: as above; settings: 72 h
[28] = test system: normal NK cells expanded with K562-aAPC; assay: as above; settings: 72 h, IL-2 2.5 ng/mL
Experimental: as §1

O=C(O)c1ccc(O)c2ncccc12 [IOX-1] (max concentration tested 100000 nM)
Settings | drug sensitivity score
DERL-7 (IL-2 2.5 ng/mL) [9] | 4.57
IMC-1 (IL-2 20 ng/mL) [6] | 4.66
KAI3 (IL-2 2.5 ng/mL) [11] | 8.02
KHYG-1 (IL-2 2.5 ng/mL) [13] | 5.99
NK-92 (IL-2 2.5 ng/mL) [2] | 5.53
NK-YS (IL-2 2.5 ng/mL) [5] | 4.95
NKL (IL-2 2.5 ng/mL) [8] | 5.52
SNK-6 (IL-2 2.5 ng/mL) [1] | 7.64
YT (IL-2 2.5 ng/mL) [7] | 5.1
[3] | 0.69
[4] | 3.07
[10] | 5.03
[12] | 0.36
[14] | 1.59

percent inhibition of viability [%]
Settings | 10 nM | 100 nM | 1000 nM | 10000 nM | 100000 nM
DERL-7 (IL-2 2.5 ng/mL) [23] | 3.2 | 6.07 | 1.59 | 7.49 | 60.9
IMC-1 (IL-2 20 ng/mL) [20] | -3.09 | -5.78 | -3.15 | -12.9 | 98.3
KAI3 (IL-2 2.5 ng/mL) [25] | -3.64 | -1.76 | 6.25 | 18.8 | 90.3
KHYG-1 (IL-2 2.5 ng/mL) [27] | -4.24 | 1.11 | -3.63 | 4.25 | 97.2
NK-92 (IL-2 2.5 ng/mL) [16] | -6.93 | 3.17 | -9.38 | 5.58 | 84.7
NK-YS (IL-2 2.5 ng/mL) [19] | -2.09 | 1.71 | -3.7 | -0.87 | 90
NKL (IL-2 2.5 ng/mL) [22] | 1.44 | -6.7 | -0.16 | 3.16 | 91.7
SNK-6 (IL-2 2.5 ng/mL) [15] | 5.81 | 6.03 | 15.1 | 13.8 | 96.1
YT (IL-2 2.5 ng/mL) [21] | -3.65 | -2.89 | -3.48 | -1.62 | 93.9
[17] | -7.55 | -4.61 | -5.18 | 1.2 | 19.5
[18] | -3.62 | -13.1 | 0.64 | 8.14 | 36.8
[24] | -3.86 | -11 | -13.3 | 21.7 | 44.1
[26] | -7.65 | 2.85 | -9.5 | -2.84 | 18.6
[28] | 2.28 | -1.61 | -3.75 | -2.77 | 37.3

C#Cc1cccc(Nc2ncnc3cc4c(cc23)OCCOCCOCCO4)c1 [Icotinib] (max concentration tested 10000 nM)
Settings | drug sensitivity score
DERL-7 (IL-2 2.5 ng/mL) [9] | 0.52
IMC-1 (IL-2 20 ng/mL) [6] | 0.61
KAI3 (IL-2 2.5 ng/mL) [11] | 0.15
KHYG-1 (IL-2 2.5 ng/mL) [13] | 0.85
NK-92 (IL-2 2.5 ng/mL) [2] | 4.82
NK-YS (IL-2 2.5 ng/mL) [5] | 0.62
NKL (IL-2 2.5 ng/mL) [8] | 0
SNK-6 (IL-2 2.5 ng/mL) [1] | 0.39
YT (IL-2 2.5 ng/mL) [7] | 0.63
[3] | 0
[4] | 0
[10] | 1.28
[12] | 0.45
[14] | 1.38

percent inhibition of viability [%]
Settings | 1 nM | 10 nM | 100 nM | 1000 nM | 10000 nM
DERL-7 (IL-2 2.5 ng/mL) [23] | -3.69 | 4.28 | 2.21 | -3.13 | 21.1
IMC-1 (IL-2 20 ng/mL) [20] | -2.8 | -2.04 | 2.45 | 1.87 | 17.3
KAI3 (IL-2 2.5 ng/mL) [25] | 0.88 | -3.16 | 3.15 | -4.22 | 15.3
KHYG-1 (IL-2 2.5 ng/mL) [27] | 2.44 | 3.1 | 7.32 | 5.9 | 20.9
NK-92 (IL-2 2.5 ng/mL) [16] | -11.7 | -6.9 | 8.46 | 9.17 | 60.1
NK-YS (IL-2 2.5 ng/mL) [19] | 1.39 | -0.84 | 6.96 | 1.74 | 17.6
NKL (IL-2 2.5 ng/mL) [22] | -8.58 | 1.33 | -2.78 | -2.73 | 7.37
SNK-6 (IL-2 2.5 ng/mL) [15] | 8.75 | 4.17 | -5.78 | 8.65 | 12.1
YT (IL-2 2.5 ng/mL) [21] | -0.54 | 0.7 | 2.3 | -0.04 | 20.5
[17] | -12.7 | -5.94 | 3.15 | -6.39 | -5.24
[18] | 2.64 | -2.92 | -2.29 | -5.75 | 8.93
[24] | 3.19 | -9.84 | 4.39 | -8.23 | 35.6
[26] | -5.53 | 5.07 | 5.9 | -0.93 | 18.9
[28] | -2.8 | 5.15 | 5.26 | 7.7 | 24.2
